{"source": "paper PMC7734281", "about": "“Functionalized Oxoindolin Hydrazine Carbothioamide Derivatives as Highly Potent Inhibitors of Nucleoside Triphosphate Diphosphohydrolases” (Frontiers in Pharmacology, 2020)", "key": {"[1]": {"biological_target": "T1, h-NTPDase8 (Homo sapiens, UniProt Q5MY95)", "T1 construct": "made in house; host or cells: COS-7 cells, transient transfection; crude protein extract after sonication", "T1 sequence (Q5MY95 1-495)": "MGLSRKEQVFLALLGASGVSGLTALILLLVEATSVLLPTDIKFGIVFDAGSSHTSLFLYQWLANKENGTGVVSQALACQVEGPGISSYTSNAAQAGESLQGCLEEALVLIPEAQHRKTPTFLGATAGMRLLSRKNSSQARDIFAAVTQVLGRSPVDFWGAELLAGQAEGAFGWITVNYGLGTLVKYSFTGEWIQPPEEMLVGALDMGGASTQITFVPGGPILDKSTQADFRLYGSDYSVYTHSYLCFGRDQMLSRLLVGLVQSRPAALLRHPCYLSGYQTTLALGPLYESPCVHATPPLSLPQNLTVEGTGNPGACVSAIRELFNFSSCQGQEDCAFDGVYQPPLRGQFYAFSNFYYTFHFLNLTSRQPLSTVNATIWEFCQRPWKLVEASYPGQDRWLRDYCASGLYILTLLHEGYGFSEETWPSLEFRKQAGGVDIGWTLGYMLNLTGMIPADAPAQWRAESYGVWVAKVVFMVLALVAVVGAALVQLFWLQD", "test": "h-NTPDase8 inhibition, malachite green assay", "assay_type": "biochemical", "details": "Lineweaver-Burk plot"}, "[2]": {"test_system": "mice pancreatic islets", "test": "Glucose stimulated insulin secretion in isolated mice islets (ELISA)", "assay_type": "cell-based, BALB/c mice", "details": "basal glucose 3 mM"}, "[3]": {"biological_target": "T2, h-NTPDase2 (Homo sapiens, UniProt Q9Y5L3)", "T2 construct": "made in house; host or cells: COS-7 cells, transient transfection; crude protein extract after sonication", "T2 sequence (Q9Y5L3 1-495)": "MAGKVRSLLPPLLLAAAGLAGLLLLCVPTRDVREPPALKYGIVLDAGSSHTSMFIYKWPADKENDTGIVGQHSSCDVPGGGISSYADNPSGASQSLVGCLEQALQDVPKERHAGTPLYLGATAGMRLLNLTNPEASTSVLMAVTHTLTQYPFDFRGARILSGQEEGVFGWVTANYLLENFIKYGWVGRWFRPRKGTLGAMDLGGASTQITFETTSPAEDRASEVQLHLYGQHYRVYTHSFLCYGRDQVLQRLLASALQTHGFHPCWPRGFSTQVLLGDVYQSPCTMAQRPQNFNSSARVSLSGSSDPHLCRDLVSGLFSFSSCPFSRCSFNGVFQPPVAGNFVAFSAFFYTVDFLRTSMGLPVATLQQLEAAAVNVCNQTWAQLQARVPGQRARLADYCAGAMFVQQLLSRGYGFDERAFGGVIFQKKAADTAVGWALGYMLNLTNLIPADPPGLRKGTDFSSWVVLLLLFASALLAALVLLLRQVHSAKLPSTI", "test": "h-NTPDase2 inhibition, malachite green assay", "assay_type": "biochemical", "details": "Lineweaver-Burk plot"}}, "note": "“Also recorded” adds a separate entry of the source.", "data": [{"smiles": "O=C1Nc2ccccc2/C1=N/NC(=S)Nc1ccc(Cl)cc1", "note": "[8c, (Z)-N-(4-chlorophenyl)-2-(2-oxoindolin-3-ylidene)hydrazine-1-carbothioamide]", "values": [{"measurement": "Mode of inhibition of h-NTPDase8", "setting": "[1]", "result": "competitive"}]}, {"smiles": "CCNC(=S)N/N=C1\\C(=O)Nc2ccccc21", "note": "[8m, (Z)-N-ethyl-2-(2-oxoindolin-3-ylidene)hydrazine-1-carbothioamide]", "values": [{"measurement": "Effect on insulin secretion at basal glucose level", "setting": "[2]", "result": "no effect on insulin secretion; also recorded: did not produce any significant effect"}]}, {"smiles": "COc1ccc(OC)c(NC(=S)N/N=C2\\C(=O)Nc3ccccc32)c1", "note": "[8j, (Z)-N-(2,5-dimethoxyphenyl)-2-(2-oxoindolin-3-ylidene)hydrazine-1-carbothioamide]", "values": [{"measurement": "Mode of inhibition of h-NTPDase2", "setting": "[3]", "result": "competitive"}]}]}
